Like-named read-outs stand apart in the source and are kept apart here.
Legend:
[1] = tested on: azoxymethane-induced aberrant crypt foci (ACF); test: Azoxymethane-induced aberrant crypt foci (ACF) in rat colon, dietary pterostilbene; format: in vivo, male F344 rats; settings: for inhibition at 40 ppm: Rattus norvegicus, feed or water, 40 ppm in diet, compared to control diet
Method: Weanling male F344 rats were obtained from Charles River Breeding Laboratories (Kingston, N.Y.). All experimental diets were purchased from Research Diets (New Brunswick, N.J.) and stored at 4° C. All animals were randomly distributed by weight into control and experimental groups and housed in plastic cages with filter tops (three per cage) under controlled conditions of a 12-hr light and dark cycle, 50% humidity and 21° C. temperature. Animals had access to food and water at all times. Food cups were replenished with fresh diet two times weekly.
Beginning at 5 weeks of age, all rats were fed the modified American Institute of Nutrition-76A (AIN-76A) diet. At 7 weeks of age, the animals were given s.c. injections of azoxymethane (AOM) (CAS no. 25843-45-2, Ash Stevens, Detroit, Mich.) once weekly for 2 weeks at a dose rate of 15 mg/kg body weight. One day after the second AOM injection, groups of animals (n=9 per group) were maintained on AIN-76A diet alone and AIN-76A diet containing 40 ppm pterostilbene. […] See, e.g., U.S. Application Publication No. US 2006-0057231 A1.
On the average, the animal consumed about 0.6 mg pterostilbene per day. All rats were weighed once weekly until termination of the study at 8 weeks after the second AOM treatment were sacrificed by CO2 asphyxiation. After laparotomy, the entire stomach, small intestine, and large intestine were resected. The organs were opened longitudinally, and the contents were flushed with normal saline.
For the ACF analysis, the colons were fixed flat between two pieces of filter paper in 10% buffered formalin for a minimum of 24 hr. The colons were then cut into 2-cm segments, starting at the anus. They were stained with 0.2% methylene blue in Krebs-Ringer solution for 5-10 min, and were then placed mucosal side up on a microscope slide and observed through a light microscope. ACF were counted and recorded according to standard procedures that are being used routinely in the laboratory. […] The parameters used to assess the aberrant crypts were their occurrence and multiplicity. Crypt multiplicity was determined as the number of crypts in each focus. Multicrypts were categorized as containing up to four or more aberrant crypts/focus.
(§1) Total number of ACF/colon and multiple aberrant crypts/focus were counted and the data were analyzed by Student's t-test. The PCNA labeling index (PI) was calculated as the [(number of positive cells)/(total number of cells)]×100 for each field which is averaged to get the PI for each section. The significance of treatment between the groups was analyzed by Student's t-Test.

[2] = tested on: proliferating cell nuclear antigen (PCNA); test: PCNA immunostaining and labeling index of colon sections; format: in vivo, male F344 rats; settings: 40 ppm in diet, AOM-treated rats
Method: as §1
(§2) Animals were treated as described in Example 27. Colon samples from each group were harvested at autopsy and fixed in 10% formalin for 24 hr. They were sectioned into 8 to 10 segments, paraffin embedded, and microtomed into 4 μm thick tissue sections. The slides were incubated overnight at room temperature with antibody to proliferating cell nuclear antigen (PCNA) (1:1000 diluted, BD Pharmingen, San Diego, Calif.), iNOS (1:100 diluted, Santa Cruz Biotechnology, Santa Cruz, Calif.), or mucin MUC2 (1:250 diluted, Santa Cruz Biotechnology, Santa Cruz, Calif.).
The slides were incubated with the biotinylated secondary antibody, and then with avidin/biotinylated peroxidase complex for 30 min at room temperature (Vector Labs, Burlingame, Calif.), and were incubated with […] (DAB) substrate. The sections were then counter-stained with Modified Harris Hematoxylin. The images were taken randomly at 400× using Zeiss AxioCam HRc camera fitted to a Zeiss Axioskope 2 Plus microscope. […]

iNOS = iNOS immunostaining of colon sections; format: in vivo, male F344 rats; settings: 40 ppm in diet, AOM-treated rats
Method: as §2
The slides were incubated with the biotinylated secondary antibody, and then with avidin/biotinylated peroxidase complex for 30 min at room temperature (Vector Labs, Burlingame, Calif.), and were incubated with […] (DAB) substrate. The sections were then counter-stained with Modified Harris Hematoxylin. The images were taken randomly at 400× using Zeiss AxioCam HRc camera fitted to a Zeiss Axioskope 2 Plus microscope. A positive reaction is noted by a reddish brown precipitate in the nucleus for PCNA, in the cytoplasm for iNOS or in the colon crypts for mucin MUC2.

p27 = test: Western blot of p27 in HT-29 cells; format: cell-based, human; settings: HT-29, data not shown
Method: (§3) The cells were incubated with different concentrations of pterostilbene for 1, 2 and 3 days, and cell proliferation was estimated by measuring [^3H]thymidine incorporated into DNA. […] In order to evaluate whether pterostilbene potentiates cell cycle arrest or apoptosis in HT-29 cells, the effect of pterostilbene on the proteins regulating the cell cycle and/or apoptosis pathways was examined. Cells treated with pterostilbene for 9 h or 18 h were harvested and protein samples were analyzed by Western blotting (FIG. 8B).
(§4) The cell culture conditions and the reagents used in this example were described in Example 32. Whole cell extracts were collected after the various treatments and analyzed by western blotting. The protein samples were separated on 4-15% SDS-PAGE gels (Biorad, Hercules, Calif.) followed by transfer to a polyvinylidene fluoride membrane. The membranes were blocked with 5% milk in Tris buffer for 1 h and then incubated with the appropriate primary antibody solutions overnight at 4° C. The membranes were washed with Tris buffer, and incubated with horseradish peroxidase conjugated secondary antibody solutions for 1 h at room temperature.
(§5) The protein bands were visualized using a chemiluminescence based kit from Amersham Biosciences (Buckinghamshire, UK). […]

cleaved PARP = test: Western blot of cleaved PARP in HT-29 cells (apoptosis marker); format: cell-based, human; settings: 9 h or 18 h
Method: as §3, §4, §5

Elk-1 = test: Western blot of cytokine-induced Elk-1 phosphorylation in HT-29 cells; format: cell-based, human; settings: cytokine-treated HT-29
Method: as §4
The protein bands were visualized using a chemiluminescence based kit from Amersham Biosciences (Buckinghamshire, UK). The primary antibodies against iNOS, COX-2, IκBα, cyclin D1, c-myc (Santa Cruz Bio-technology, Santa Cruz, Calif.), phospho-STAT3, phospho-Erk1/2, phospho-JNK1/2, phospho-p38, phospho-Akt, phospho-ATF2, phospho-Elk1, PARP (Cell Signaling Technology Inc., Beverly, Mass.) and actin (Sigma, St. Louis, Mo.) and secondary antibodies (Santa Cruz Biotechnology, Santa Cruz, Calif.) were used for probing the abundance of the target protein in the samples. […]

[3] = rats; cited from earlier work
[4] = 40 ppm in AIN-76A diet, 8 weeks after second AOM treatment, Mean ± S.D. (n = 9)

Which results are given for `COc1cc(/C=C/c2ccc(O)cc2)cc(OC)c1` [pterostilbene, (E)-4-(3,5-dimethoxystyryl)phenol]?
>4 ACF/colon [1, 4]: 25.1 ± 5.6; ACF/colon [1, 4]: 117 ± 12; inhibition at 40 ppm ([1]; read-out: inhibition of multiple aberrant crypts/focus): 29%; inhibition at 40 ppm ([1]; read-out: inhibition of total ACF/colon): 57%; PCNA positive cells (%) of colon tissue [2]: 44.2±2.9%; iNOS staining of ACF with moderate dysplasia (iNOS): weak cytoplasmic staining; induction of p27 (p27): no induction; level of cleaved PARP (cleaved PARP): increased; cytokine-induced activation (phosphorylation) of Elk-1 (Elk-1): effective in inhibiting; serum glucose [3]: lower serum glucose
